Source: patent US20150119317A1, “ORAL SOLID DOSAGE FORMULATION OF 1,1-DIMETHYLETHYL [(1S)-1-CARBAMOYL)PYRROLIDIN-1-YL]CARBONYL}-2,2-DIMETHYLPROPYL]CARBAMATE” (BRISTOL-MYERS SQUIBB COMPANY, priority 2012, published 2015)

Experiment: Bioequivalence study: PK of wet and dry granulated tablets in a dog model
Assay type: in vivo
Details: fed state with 50 ml high-fat meal substitute
Description: A study was conducted to compare conventional tablet dosage forms. The goal of the study was to assess the in vivo performance of various prototypes of conventional tablet dosage forms (wet and dry granulated tablets) in a dog model.
The following five formulations were tested: […]
1. Phase 2 Clinical (dry granulated (DG)) tablet 2×200 mg.
2. Wet granulated (WG) Vitamin E TPGS/poloxamer tablet: 50% w/w Compound I+4.67% w/w Vitamin E TPGS+4% w/w poloxamer+14.33% w/w microcrystalline cellulose+15% lactose monohydrate+11.5% w/w croscarmellose sodium+0.5% w/w magnesium stearate; 2×200 mg (Corresponds to the formulation shown above in Table 1).
3. WG poloxamer tablet: 50% w/w Compound I+2% w/w polyvinyl pyrrolidone+4% w/w poloxamer+16% microcrystalline cellulose+16% w/w lactose monohydrate+11.5% w/w croscarmellose sodium+0.5% w/w magnesium stearate; 2×200 mg (Corresponds to the formulation shown above in Table 5).
4. Amorphous API tablet: 50% w/w Compound I+41.25% w/w microcrystalline cellulose+5% w/w croscarmellose sodium+2% w/w silicon dioxide+1% w/w sodium lauryl sulphate+0.75% w/w magnesium stearate; 2×200 mg.
5. Solution Formulation: Polyethylene glycol 400:EtOH: polysorbate 80 (50:35:15), 20 mg/mL.
The protocol used was as follows:
[…] For food-effect studies in the fed state, dogs were given 50 ml high-fat meal substitute instead of water.

For `C=C[C@@H]1C[C@]1(NC(=O)[C@@H]1C[C@@H](Oc2ncc(OC)c3ccc(Cl)cc23)CN1C(=O)[C@@H](NC(=O)OC(C)(C)C)C(C)(C)C)C(=O)NS(=O)(=O)C1CC1` [Compound I, 1,1-dimethylethyl[(1S)-1-{[(2S,4R)-4-(7-chloro-4methoxyisoquinolin-1-yloxy)-2-({(1R,2S)-1-[(cyclopropylsulfonyl)carbamoyl]-2-ethenylcyclopropyl}carbamoyl)pyrrolidin-1-yl]carbonyl}-2,2-dimethylpropyl]carbamate], which food effect is on record?
Its food effect is “significant positive food effect”.
